Laboratory results from PubChem BioAssay (NCI).
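Grown in 96-well plates, cells were treated for 48 hours with each compound at five concentrations. Insufficient inhibition: endpoint recorded as highest concentration tested. The concentration for 50% growth inhibition is given as GI50. TGI denotes the concentration required for complete inhibition of growth.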

Assays:
Assay in all cases: inhibition of tumour cell growth, NCI panel, 48 h
CCRF-CEM leukemia = tested on: CCRF-CEM leukemia
DU-145 prostate = tested on: DU-145 prostate
EKVX NSCLC = tested on: EKVX NSCLC
HCT-116 colon = tested on: HCT-116 colon
HT29 colon = tested on: HT29 colon
K-562 leukemia = tested on: K-562 leukemia
SK-MEL-5 melanoma = tested on: SK-MEL-5 melanoma
U251 CNS = tested on: U251 CNS
UACC-62 melanoma = tested on: UACC-62 melanoma
HOP-92 NSCLC = tested on: HOP-92 NSCLC

| Compound | GI50 (CCRF-CEM leukemia) | TGI (CCRF-CEM leukemia) | GI50 (DU-145 prostate) | TGI (DU-145 prostate) | GI50 (EKVX NSCLC) | TGI (EKVX NSCLC) | GI50 (HCT-116 colon) | TGI (HCT-116 colon) | GI50 (HT29 colon) | TGI (HT29 colon) | GI50 (K-562 leukemia) | TGI (K-562 leukemia) | GI50 (SK-MEL-5 melanoma) | TGI (SK-MEL-5 melanoma) | GI50 (U251 CNS) | TGI (U251 CNS) | GI50 (UACC-62 melanoma) | TGI (UACC-62 melanoma) | TGI (HOP-92 NSCLC) |
| --- | --- | --- | --- | --- | --- | --- | --- | --- | --- | --- | --- | --- | --- | --- | --- | --- | --- | --- | --- |
| COC(=O)C1=C(C)NC(C)=C(C(=O)OC)C1/C=C(Cl)/C=C/c1ccccc1 | 29.6 µM | 60 µM | 18.4 µM | 36.7 µM | 23.5 µM | 96.4 µM | 17.2 µM | 30.9 µM | 18.9 µM | 44.9 µM | 22.8 µM | 54.7 µM | 17.2 µM | 33.4 µM | 23 µM | 58.5 µM | 16.1 µM | 30.8 µM | – |
| NCCCNCCCCN(CCCN)/[N+]([O-])=N\O | – | > 100 µM | – | – | – | > 100 µM | – | > 100 µM | – | > 100 µM | – | > 100 µM | – | > 100 µM | – | – | – | > 100 µM | > 100 µM |
| O=C1c2ccccc2C(=O)c2c1ccc(C1C(=O)c3ccccc3C1=O)c2-c1c(C2C(=O)c3ccccc3C2=O)ccc2c1C(=O)c1ccccc1C2=O | – | – | – | > 100 µM | – | > 100 µM | – | > 100 µM | – | > 100 µM | – | > 100 µM | – | > 100 µM | – | > 100 µM | – | > 100 µM | > 100 µM |
| O=C(/C=C/c1cc([N+](=O)[O-])ccc1Cl)c1ccccc1 | 26.9 µM | > 100 µM | 14.7 µM | 31.2 µM | 13 µM | 43.2 µM | 1.59 µM | 2.93 µM | 3.36 µM | 19.4 µM | 6.66 µM | > 100 µM | 15.4 µM | 29.3 µM | 2.56 µM | 8.04 µM | 13.8 µM | 32.3 µM | – |
| C[C@]1(CO)CCC[C@@]2(C)C1CC[C@H]1CC3C[C@]12CC[C@]3(C)O (some centres not stated) | – | – | – | – | – | – | – | > 100 µM | – | > 100 µM | – | > 100 µM | – | 35.2 µM | – | > 100 µM | – | > 100 µM | > 100 µM |
| Clc1ccc(C2SCc3nc4ccccc4n32)cc1Cl (configuration not stated) | – | > 100 µM | – | – | – | 28.1 µM | – | 26.2 µM | – | 29.9 µM | – | > 100 µM | – | 21 µM | – | 30.8 µM | – | 27.1 µM | 27.4 µM |
| CCc1cccc(C(C)C)c1N1C(=O)C(=O)C(c2nc3ccccc3s2)C(=O)C1=O | – | > 42.1 µM | – | – | – | > 50 µM | – | > 50 µM | – | > 50 µM | – | > 50 µM | – | > 50 µM | – | > 50 µM | – | > 50 µM | > 50 µM |
| COc1cc2c3c(c1OC)-c1c(ccc4c1OCO4)CC3(C#N)N(C(=O)c1ccccc1)CC2 (configuration not stated) | – | > 100 µM | – | – | – | > 100 µM | – | > 100 µM | – | > 100 µM | – | > 100 µM | – | > 100 µM | – | > 100 µM | – | > 100 µM | 77.9 µM |
| CCC1CN2CCc3c([nH]c4ccccc34)C2C[C@@H]1CC(=O)N(C)C (some centres not stated) | – | > 100 µM | – | – | – | > 100 µM | – | > 100 µM | – | > 100 µM | – | > 100 µM | – | > 100 µM | – | > 100 µM | – | – | > 100 µM |
| Cc1cc(C)nc(NS(=O)(=O)c2ccc(Nc3c4ccc(Cl)cc4nc4c(C(=O)Nc5ccc(S(N)(=O)=O)cc5)cccc34)cc2)n1 | – | > 100 µM | – | – | – | 48.8 µM | – | 30.2 µM | – | 52.4 µM | – | > 100 µM | – | – | – | 28.7 µM | – | 76.6 µM | – |
